Data from paper PMC3408433, “Selective Cytotoxicity of Amidinopiperidine Based Compounds Towards Burkitt’s Lymphoma Cells Involves Proteasome Inhibition” (PLoS ONE, 2012).
Where two headings read alike, the source gives them in different places.

Columns and labels:
[1] = system: Ramos Burkitt’s lymphoma cells; experiment: Metabolic activity assay (MTS), Ramos; assay type: cell-based, human; conditions: 24 h; for cytotoxicity group (Figure 3A) / viability at 100 µM: 100 µM; for viability at 100 µM: Homo sapiens, read-out: residual metabolic activity relative to untreated control
Procedure: When investigating the potency of selected serine protease inhibitors to induce cell death in human B lymphoma cells, we identified a set of compounds cytotoxic for Burkitt’s lymphoma. Using a metabolic activity assay (MTS), we evaluated the proliferation rate of Ramos Burkitt’s lymphoma cells, in the presence of serine protease inhibitors. Cells were treated for 24 h with the compound of interest at concentrations of 100 µM (1–13, 15, 16) or 50 µM (14). After a comparison of metabolic activity relative to that in the untreated control, three groups with distinct modes of action were determined (Figure 3A). […] The second group (compounds 1–3, 5, 7 and 13) caused a moderate decrease (50% to 80%) relative to untreated cells. The last group of compounds (11, 15, 16) severely impaired the metabolic activity, such that it fell to under 6%.
(§1) Cells (1×10^5 cells/mL for Ramos, Daudi, U937 and Jurkat, and 1×10^6 cells/mL for PBMC) were treated with the appropriate amounts of compounds of interest or corresponding vehicle (control cells), then seeded in triplicate in 96 well plates. The metabolic activity was assessed using the CellTiter 96® Aqueous One Solution Cell Proliferation Assay (Promega, Madison/WI, USA), in accordance with the manufacturer’s instructions.

Thrombin = target: Thrombin; set-up: method as in PMID 15497744, PMID 15544050, PMID 17484277; conditions: amidolytic assay, chromogenic substrate; determined previously; cited from earlier work
Factor Xa = target: Factor Xa; set-up: method as in PMID 15497744, PMID 15544050, PMID 17484277; conditions: amidolytic assay, chromogenic substrate; determined previously; cited from earlier work
Trypsin = target: Trypsin; set-up: method as in PMID 15497744, PMID 15544050, PMID 17484277; conditions: amidolytic assay, chromogenic substrate; determined previously; cited from earlier work
α-chymotrypsin = α-chymotrypsin (Bos taurus, UniProt P00766); experiment: α-Chymotrypsin inhibition assay
Procedure: In short, a 1 nM solution of α-chymotrypsin was mixed with various concentrations of the substrate Suc-Ala-Ala-Pro-Phe-AMC. All the solutions were prepared in 144 mM Tris–HCl, pH 7.8. Substrate hydrolysis was monitored at 30°C on an automated Tecan Safire^2 microplate reader (Tecan, Mannedorf/Zürich, Switzerland). The initial rates of the reactions (ΔF/Δt) were measured immediately after the addition of the substrate (within 200 s) and plotted versus substrate concentration with nonlinear regression to fit a Michaelis-Menten plot. The curve fit and kinetic parameters (Km and v max) were calculated using GraphPad PRISM version 5.0 software (GraphPad Software, Inc., CA, USA). […] The initial velocities of the hydrolysis reactions were measured under the same conditions as described for the determination of Km. 50 µl of α-chymotrypsin solution was added to 50 µl of each inhibitor solution (prepared in 144 mM Tris–HCl, pH 7.8; final concentration 1 nM) and incubated at 30°C for 15 min. The reaction was initiated with the addition of 100 µl of substrate. […] The Ki values were determined as mean values of all measurements.

[2] = system: peripheral blood mononuclear cells (PBMC); experiment: Metabolic activity assay (MTS), PBMC; assay type: cell-based, human; conditions: 50 µM, 24 h
Procedure: (§2) Compounds 11, and 14–16 were further tested for selective cytotoxicity. The experiments were conducted on freshly isolated primary peripheral blood mononuclear cells (PBMC) and three other haematological cancers: human T cell leukaemia (Jurkat), human histiocytic lymphoma (U937) and human Burkitt’s lymphoma (Daudi). An MTS assay was performed following 24 h of treatment with the compound of interest at 50 µM. […] The inhibition of proliferation in Ramos cells, mediated with compounds 15 and 16, was concentration dependent.
as §1

[3] = system: human T cell leukaemia (Jurkat); experiment: Metabolic activity assay (MTS), Jurkat; assay type: cell-based; conditions: 50 µM, 24 h
Procedure: as §2, §1

[4] = system: human histiocytic lymphoma (U937); experiment: Metabolic activity assay (MTS), U937; assay type: cell-based; conditions: U937, 50 µM, 24 h
Procedure: as §2, §1

[5] = system: human Burkitt’s lymphoma (Daudi); experiment: Metabolic activity assay (MTS), Daudi; assay type: cell-based; conditions: 50 µM, 24 h
Procedure: as §2, §1

Solubility remark = assay type: physicochemical; conditions: reason for testing at 50 µM

solubility (Solubility remark)	Structure (SMILES)	cytotoxicity group (Figure 3A) [1]	viability at 100 µM [1] [%]	Ki (Thrombin) [µM]	Ki (Factor Xa) [µM]	Ki (Trypsin) [µM]	Ki (α-chymotrypsin) [µM]	Ki (α-chymotrypsin; read-out: Ki α-chymotrypsin, substrate Suc-Ala-Ala-Pro-Phe-AMC, pH 7.8, 30°C) [µM]	residual metabolic activity relative to control ([1]; 50 µM)	residual metabolic activity relative to control [2]	residual metabolic activity relative to control [3]	residual metabolic activity relative to control [4]	residual metabolic activity relative to control [5]
	N/C(=N/O)c1ccc(CN(NC(=O)c2ccc3ccccc3c2)C(=O)N2CCCCCC2)cc1 [Compound 1]	moderately cytotoxic (caused a moderate decrease (50% to 80%) relative to untreated cells)	50 to 80	5.2	78	660	33.5						
	CC1CCN(C(=O)N(Cc2ccc(/C(N)=N\O)cc2)NC(=O)c2ccc3ccccc3c2)CC1 [Compound 2]	moderately cytotoxic (caused a moderate decrease (50% to 80%) relative to untreated cells)	50 to 80	> 200	> 200	200	259						
	N/C(=N\O)c1cccc(CN(NC(=O)c2ccc3ccccc3c2)C(=O)N2CCCCCC2)c1 [Compound 3]	moderately cytotoxic (caused a moderate decrease (50% to 80%) relative to untreated cells)	50 to 80	4.8	60	> 100	3						
	N/C(=N\O)c1cccc(CN(NS(=O)(=O)c2ccc3ccccc3c2)C(=O)N2CCOCC2)c1 [Compound 4]	well tolerated (well tolerated by Ramos, since their residual metabolic activity did not fall below 80%)	≥ 80	3.1	60	48	41						
	CC1CCN(C(=O)N(Cc2ccc(C#N)cc2)NC(=O)c2ccc3ccccc3c2)CC1 [Compound 5]	moderately cytotoxic (caused a moderate decrease (50% to 80%) relative to untreated cells)	50 to 80				273						
	CC1CCN(C(=O)N(Cc2cccc(C(=N)N)c2)NC(=O)c2ccc3ccccc3c2)CC1 [Compound 6]	well tolerated (well tolerated by Ramos, since their residual metabolic activity did not fall below 80%)	≥ 80	6.8	5.7	1.8	17.1						
	Nc1ccc(CN(NS(=O)(=O)c2ccc3ccccc3c2)C(=O)N2CCOCC2)cc1 [Compound 7]	moderately cytotoxic (caused a moderate decrease (50% to 80%) relative to untreated cells)	50 to 80	4.5	62	5.6	4						
	CC(=O)Nc1ccc(CN(NS(=O)(=O)c2ccc3ccccc3c2)C(=O)N2CCOCC2)cc1 [Compound 8]	well tolerated (well tolerated by Ramos, since their residual metabolic activity did not fall below 80%)	≥ 80				24.7						
	CC(=O)NCc1ccc(CN(NS(=O)(=O)c2ccc3ccccc3c2)C(=O)N2CCCCC2)cc1 [Compound 9]	well tolerated (well tolerated by Ramos, since their residual metabolic activity did not fall below 80%)	≥ 80				40.6						
	CC(C)CC(NS(=O)(=O)c1ccc2ccccc2c1)C(=O)NN(Cc1ccc(C(=N)N)cc1)C(=O)N1CCCCCC1 (centres unmarked) [Compound 10]	well tolerated (well tolerated by Ramos, since their residual metabolic activity did not fall below 80%)	≥ 80	10	> 100	> 100		8.8					
	CC1CCN(C(=O)N(CC2CCNCC2)NS(=O)(=O)c2ccc3ccccc3c2)CC1 [Compound 11]	severely cytotoxic (severely impaired the metabolic activity, such that it fell to under 6%)	< 6	19		> 200	38.8		under 40%	under 40%	under 40%	under 40%	under 40%
	O=C(N1CCOCC1)N(CC1CCNCC1)NS(=O)(=O)c1ccc2ccccc2c1 [Compound 12]	well tolerated (well tolerated by Ramos, since their residual metabolic activity did not fall below 80%)	≥ 80	53		> 200	150						
	O=C(N1CCCCC1)N(CC1CCNCC1)NS(=O)(=O)c1ccc2ccccc2c1 [Compound 13]	moderately cytotoxic (caused a moderate decrease (50% to 80%) relative to untreated cells)	50 to 80	30		> 200	65.9						
poor solubility	CC(=O)N1CCC(CN(NS(=O)(=O)c2ccc3ccccc3c2)C(=O)N2CCCCC2)CC1 [Compound 14]						47.7			under 40%	under 40%	under 40%	under 40%
